Data taken from patent US20210309961A1, “METHOD OF THREE-DIMENSIONAL MICROORGANISMS BIOFILMS FABRICATION” (VIVAX BIO, LLC, priority 2020, published 2021).

System: E. coli ATCC 43890
Experiment: Survivability of E. coli ATCC 43890 in presence of gadobutrol (cfu count by plating decimal dilutions)
Format: cell-based, Escherichia coli
Procedure: A. (1) E. coli culture ATCC 43890 grown on LB broth during the night, (2) bacteria culture grown on LB broth and incubated with 0,2 M of gadobutrol in magnetic bioprinter for 24 hours, and (3) bacteria culture cultivated in paramagnetic substrate containing 0,2 M of gadobutrol in magnetic bioprinter for 24 hours; bacteria were sown in decimal dilution; diagram is showing concentrations calculated in three independent experiments.
The E. coli ATCC 43890 (cultured in different conditions) concentrations were estimated for analysis of survivability of bacteria in presence of gadobutrol. Primary culture has shown concentrations of 2.3×10^9, 2.1×10^9 and 1.9×10^8 cfu/ml for fresh night culture grown in LB broth during the night (1), for culture grown in LB broth during the night and then incubated with 0.2M gadobutrol in the bioprinter for next 24 hours (2), and culture grown under magnetic levitation in the paramagnetic nutrient medium (3) respectively (FIG. 4A). […] Moreover, the results have shown that the bacteria proliferated in the paramagnetic culture medium, that was observed due to the increase in concentration during cultivation: the initial bacteria (diluted in fresh paramagnetic medium) concentration was 2.3×10^7 cfu/ml ( 1/100 from the fresh night culture) and final concentration was 1.9×10^8 cfu/ml.

O=C([O-])CN1CCN(CC(=O)[O-])CCN(C(CO)C(O)CO)CCN(CC(=O)[O-])CC1.[Gd+3] (stereo not drawn) [gadobutrol, [10-[2,3-dihydroxy-1-(hydroxymethyl)propyl]-1,4,7,10-tetraazacyclododecane-1,4,7-triaceto(3-)-N^1,N^4,N^7,N^10,O^1,O^4,O^7]gadolinium]
survivability of bacteria after incubation (0.2M gadobutrol): bacteria saved their survivability
bacteria concentration (culture grown in LB broth during the night, then incubated with 0.2M gadobutrol in the bioprinter for next 24 hours): 2.1×10^9 cfu/ml
bacteria concentration (culture grown under magnetic levitation in paramagnetic nutrient medium (0.2 M gadobutrol) for 24 hours, initial concentration 2.3×10^7 cfu/ml): 1.9×10^8 cfu/ml
